Laboratory results published in PMC6001238, “Iterative Chemical Engineering of Vancomycin Leads to Novel Vancomycin Analogs With a High in Vitro Therapeutic Index” (Frontiers in Microbiology, 2018).
Converted amounts (≈) assume the structure as drawn.

Experiments:
[1] = system: MRSA KS1; assay: MIC, broth microdilution, MRSA KS1; type: cell-based, Staphylococcus aureus; details: for MIC-fold improvement vs. vancomycin: MRSA KS1, ratio of MIC of vancomycin and MIC of analogue; for MIC: Staphylococcus aureus MRSA KS1, read-out: MIC
Outline: (§1)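 Serial dilutions in broth, set up per CLSI guidance, gave the MIC. Where noted, test analogues or comparator antibiotics were combined with vancomycin at 10 μM final. Controls: ultrapure water, broth without inoculum.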

[2] = system: S. aureus VRSA; assay: MIC, broth microdilution, vancomycin-resistant S. aureus (VRSA); type: cell-based, Staphylococcus aureus; details: for MIC: Staphylococcus aureus VRSA, read-out: MIC; for MIC-fold improvement vs. vancomycin: VRSA, ratio of MIC of vancomycin and MIC of analogue
Outline: as §1

[3] = system: S. aureus VISA/HIP5827; assay: MIC, broth microdilution, vancomycin-intermediate S. aureus VISA HIP5827; type: cell-based, Staphylococcus aureus; details: for MIC: Staphylococcus aureus VISA/HIP5827, read-out: MIC; for MIC-fold improvement vs. vancomycin: VISA/HIP5827, ratio of MIC of vancomycin and MIC of analogue
Outline: as §1

[4] = system: MRSA KS2; assay: MIC, broth microdilution, MRSA KS2; type: cell-based, Staphylococcus aureus; details: for MIC-fold improvement vs. vancomycin: MRSA KS2, ratio of MIC of vancomycin and MIC of analogue; for MIC: Staphylococcus aureus MRSA KS2, read-out: MIC
Outline: as §1

[5] = system: MRSA KS89; assay: MIC, broth microdilution, MRSA KS89; type: cell-based, Staphylococcus aureus; details: for MIC-fold improvement vs. vancomycin: MRSA KS8, ratio of MIC of vancomycin and MIC of analogue; for MIC: Staphylococcus aureus MRSA KS8, read-out: MIC
Outline: as §1

[6] = system: human T-lymphocyte (CEM) cells; assay: Cytostatic activity, CEM cell proliferation; type: cell-based; details: mean ± SD of three experiments; highest concentration tested 250 µM; 3 days; read-out: Toxicity (IC50) CEM
Outline: (§2)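 Suspensions (300,000–500,000 cells/mL) combined with equal volumes of diluted compound; 37°C; L1210 2 d / CEM 3 d / HeLa 4 d; counted by Coulter counter; IC50 vs untreated wells.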

[7] = system: S. aureus VSSA (ATCC 6538); assay: MIC, broth microdilution, vancomycin-sensitive S. aureus (VSSA/MSSA, ATCC 6538); type: cell-based, Staphylococcus aureus; details: for MIC: Staphylococcus aureus VSSA, read-out: MIC; for MIC-fold improvement vs. vancomycin: VSSA, ratio of MIC of vancomycin and MIC of analogue
Outline: as §1

[8] = system: Clostridium difficile ATJ ribotype 014/20; assay: MIC, plate drop assay, C. difficile ATJ ribotype 014/20; type: cell-based; details: for MIC-fold improvement vs. vancomycin: C. difficile ATJ ribotype 014/20; for MIC: C. difficile ATJ ribotype 014/20, plate drop assay
Procedure: (§3) Bacterial lawns of both C. difficile strains were prepared by adding 0.5 mL overnight culture to 8 mL sloppy BHI agar (0.4% agar) supplemented with 1.5 g/L CaCl2⋅2H2O and 81.2 g/L MgCl2⋅6H2O, and pouring the mixture into Petri plates. A twofold dilution series of the selected vancomycin analogs, vancomycin ([…]) and daptomycin (25 μM) was spotted (10 μL) on the bacterial lawn. Spots were air-dried and the plates were incubated overnight at 37°C in an anaerobic cabinet. Ultrapure water was included as negative control. The assay was performed in triplicate. Inhibition was observed by cleared spots.

[9] = system: Clostridium difficile AIU ribotype 027; assay: MIC, plate drop assay, C. difficile AIU ribotype 027; type: cell-based; details: for MIC-fold improvement vs. vancomycin: C. difficile AIU ribotype 027
Procedure: as §3

[10] = system: E. faecalis VRE 53; assay: MIC, broth microdilution, vancomycin-resistant E. faecalis VRE 53 (VanA); type: cell-based, Enterococcus faecalis; details: for MIC: Enterococcus faecalis VRE 53 (vancomycin-resistant), read-out: MIC; for MIC-fold improvement vs. vancomycin: VRE 53, ratio of MIC of vancomycin and MIC of analogue
Outline: as §1

[11] = system: Murine leukemia (L1210) cells; assay: Cytostatic activity, L1210 cell proliferation; type: cell-based; details: mean ± SD of three experiments; highest concentration tested 250 µM; 2 days; read-out: Toxicity (IC50) L1210
Outline: as §2

[12] = system: E. faecalis VRE 6; assay: MIC, broth microdilution, vancomycin-resistant E. faecalis VRE 6 (VanA); type: cell-based, Enterococcus faecalis; details: for MIC: Enterococcus faecalis VRE 6 (vancomycin-resistant), read-out: MIC; for MIC-fold improvement vs. vancomycin: VRE 6, ratio of MIC of vancomycin and MIC of analogue
Outline: as §1

[13] = system: L1210, CEM and HeLa cell lines; assay: Cytostatic activity, average or summary over L1210, CEM and HeLa; type: cell-based; details: average of L1210, CEM and HeLa; read-out: Toxicity (IC50) Average
Outline: as §2

[14] = system: E. faecalis VRE 29; assay: MIC, broth microdilution, vancomycin-resistant E. faecalis VRE 29 (VanA); type: cell-based, Enterococcus faecalis; details: for MIC: Enterococcus faecalis VRE 29 (vancomycin-resistant), read-out: MIC; for MIC-fold improvement vs. vancomycin: VRE 29, ratio of MIC of vancomycin and MIC of analogue
Outline: as §1

[15] = system: human cervix carcinoma (HeLa) cells; assay: Cytostatic activity, HeLa cell proliferation; type: cell-based; details: mean ± SD of three experiments; highest concentration tested 250 µM; 4 days; read-out: Toxicity (IC50) HeLa
Outline: as §2

[16] = system: E. faecalis VRE 37; assay: MIC, broth microdilution, vancomycin-resistant E. faecalis VRE 37 (VanA); type: cell-based, Enterococcus faecalis; details: for MIC: Enterococcus faecalis VRE 37 (vancomycin-resistant), read-out: MIC; for MIC-fold improvement vs. vancomycin: VRE 37, ratio of MIC of vancomycin and MIC of analogue
Outline: as §1

[17] = system: E. faecalis VSE 1; assay: MIC, broth microdilution, vancomycin-sensitive E. faecalis (VSE 1); type: cell-based, Enterococcus faecalis; details: for MIC: Enterococcus faecalis VSE 1 (vancomycin-sensitive), read-out: MIC; for MIC-fold improvement vs. vancomycin: VSE 1, ratio of MIC of vancomycin and MIC of analogue
Outline: as §1

[18] = system: MRSA KS6; assay: MIC, broth microdilution, MRSA KS6; type: cell-based, Staphylococcus aureus; details: for MIC-fold improvement vs. vancomycin: MRSA KS6, ratio of MIC of vancomycin and MIC of analogue; for MIC: Staphylococcus aureus MRSA KS6, read-out: MIC
Outline: as §1

SMILES	MIC [2] [µM]	MIC-fold improvement vs. vancomycin [2]	MIC [3] [µM]	MIC-fold improvement vs. vancomycin [3]	IC50 [6] [µM]	MIC [7] [µM]	MIC-fold improvement vs. vancomycin [7]	MIC-fold improvement vs. vancomycin [8]	MIC-fold improvement vs. vancomycin [9]	MIC [10] [µM]	MIC-fold improvement vs. vancomycin [10]	IC50 [11] [µM]	MIC [12] [µM]	MIC-fold improvement vs. vancomycin [12]	IC50 [13] [µM]	MIC [14] [µM]	MIC-fold improvement vs. vancomycin [14]	IC50 [15] [µM]	MIC [16] [µM]	MIC [17] [µM]	also measured
CNC(CC(C)C)C(=O)NC1C(=O)NC(CC(N)=O)C(=O)NC2C(=O)NC3C(=O)NC(C(=O)NC(C(=O)NCCCNC(=O)c4ccc5cc(OC)ccc5c4)c4cc(O)cc(O)c4-c4cc3ccc4O)C(O)c3ccc(c(Cl)c3)Oc3cc2cc(c3OC2OC(CO)C(O)C(O)C2OC2CC(C)(N)C(O)C(C)O2)Oc2ccc(cc2Cl)C1O (centres unmarked) [Vanc-29]	3.13 (≈ 5.29 µg/mL)	32	0.39 (≈ 0.659 µg/mL)	16	> 250	0.39 (≈ 0.659 µg/mL)	2	5.6	7	25 (≈ 42.2 µg/mL)	16	> 250	1.56 (≈ 2.64 µg/mL)	128	185	6.25 (≈ 10.6 µg/mL)	64	54 ± 44	12.5 (≈ 21.1 µg/mL)	0.20 (≈ 0.338 µg/mL)	MIC-fold improvement vs. vancomycin [1]: 2; MIC [1]: 0.39 µM (≈ 0.659 µg/mL); MIC-fold improvement vs. vancomycin [4]: 2; MIC [4]: 0.39 µM (≈ 0.659 µg/mL); MIC-fold improvement vs. vancomycin [5]: 2; MIC [5]: 0.39 µM (≈ 0.659 µg/mL); MIC-fold improvement vs. vancomycin [17]: 8; MIC-fold improvement vs. vancomycin [18]: 2; MIC [18]: 0.39 µM (≈ 0.659 µg/mL)
CNC(CC(C)C)C(=O)NC1C(=O)NC(CC(N)=O)C(=O)NC2C(=O)NC3C(=O)NC(C(=O)NC(C(=O)NCCNC(=O)C=Cc4ccccc4)c4cc(O)cc(O)c4-c4cc3ccc4O)C(O)c3ccc(c(Cl)c3)Oc3cc2cc(c3OC2OC(CO)C(O)C(O)C2OC2CC(C)(N)C(O)C(C)O2)Oc2ccc(cc2Cl)C1O (centres unmarked) [Vanc-21]	1.56 (≈ 2.53 µg/mL)	64	0.78 (≈ 1.26 µg/mL)	8	> 250	0.78 (≈ 1.26 µg/mL)	1	<1.4	4	12.5 (≈ 20.3 µg/mL)	32	> 250	1.56 (≈ 2.53 µg/mL)	128	> 250	12.5 (≈ 20.3 µg/mL)	32	> 250	12.5 (≈ 20.3 µg/mL)	0.39 (≈ 0.632 µg/mL)	MIC-fold improvement vs. vancomycin [1]: 1; MIC [1]: 0.78 µM (≈ 1.26 µg/mL); MIC-fold improvement vs. vancomycin [4]: 2; MIC [4]: 0.39 µM (≈ 0.632 µg/mL); MIC-fold improvement vs. vancomycin [5]: 1; MIC [5]: 0.78 µM (≈ 1.26 µg/mL); MIC [8]: >25 µM; MIC-fold improvement vs. vancomycin [17]: 4; MIC-fold improvement vs. vancomycin [18]: 1; MIC [18]: 0.78 µM (≈ 1.26 µg/mL)
CNC(CC(C)C)C(=O)NC1C(=O)NC(CC(N)=O)C(=O)NC2C(=O)NC3C(=O)NC(C(=O)NC(C(=O)NCCCNC(=O)c4ccc(-c5ccc(F)cc5)cc4)c4cc(O)cc(O)c4-c4cc3ccc4O)C(O)c3ccc(c(Cl)c3)Oc3cc2cc(c3OC2OC(CO)C(O)C(O)C2OC2CC(C)(N)C(O)C(C)O2)Oc2ccc(cc2Cl)C1O (centres unmarked) [Vanc-34]	0.78 (≈ 1.33 µg/mL)	128	0.10 (≈ 0.17 µg/mL)	64	34 ± 2	0.10 (≈ 0.17 µg/mL)	8	22	29	12.5 (≈ 21.3 µg/mL)	32	42 ± 7	0.39 (≈ 0.664 µg/mL)	513	62	3.13 (≈ 5.33 µg/mL)	128	110 ± 8	6.25 (≈ 10.6 µg/mL)	0.20 (≈ 0.341 µg/mL)	MIC-fold improvement vs. vancomycin [1]: 4; MIC [1]: 0.20 µM (≈ 0.341 µg/mL); MIC-fold improvement vs. vancomycin [4]: 8; MIC [4]: 0.10 µM (≈ 0.17 µg/mL); MIC-fold improvement vs. vancomycin [5]: 4; MIC [5]: 0.20 µM (≈ 0.341 µg/mL); MIC [8]: 1.56 µM (≈ 2.66 µg/mL); MIC ([9]; C. difficile AIU ribotype 027, plate drop assay): 1.56 µM (≈ 2.66 µg/mL); MIC-fold improvement vs. vancomycin [16]: 64; MIC-fold improvement vs. vancomycin [17]: 8; MIC-fold improvement vs. vancomycin [18]: 4; MIC [18]: 0.20 µM (≈ 0.341 µg/mL)
CN[C@H](CC(C)C)C(=O)N[C@H]1C(=O)N[C@@H](CC(N)=O)C(=O)N[C@H]2C(=O)N[C@H]3C(=O)N[C@H](C(=O)N[C@H](C(=O)NCC(=O)Nc4ccc5cc6ccccc6cc5c4)c4cc(O)cc(O)c4-c4cc3ccc4O)[C@H](O)c3ccc(c(Cl)c3)Oc3cc2cc(c3O[C@@H]2O[C@H](CO)[C@@H](O)[C@H](O)[C@H]2O[C@H]2C[C@](C)(N)[C@H](O)[C@H](C)O2)Oc2ccc(cc2Cl)[C@H]1O [Vanc-59]	0.20 (≈ 0.336 µg/mL)	512	0.39 (≈ 0.656 µg/mL)	16	23 ± 6	0.39 (≈ 0.656 µg/mL)	2	22	29	12.5 (≈ 21 µg/mL)	32	177 ± 90	1.56 (≈ 2.62 µg/mL)	128	96	3.13 (≈ 5.26 µg/mL)	128	88 ± 37	1.56 (≈ 2.62 µg/mL)	0.20 (≈ 0.336 µg/mL)	MIC-fold improvement vs. vancomycin [16]: 256; MIC-fold improvement vs. vancomycin [17]: 8
